Data taken from ChEMBL document CHEMBL1151077, “Peptide mimics of glycylproline as inhibitors of prolidase” (Bioorg Med Chem Lett, 1995).
Peptide text beside a SMILES is read from it. * marks the point of attachment. Bz = O=C(c1ccccc1)*

Target: Angiotensin-converting enzyme (Homo sapiens, UniProt P12821+Q9BYF1)
Assay: Inhibitory activity against angiotensin converting enzyme
Type: protein assay

- IC50: 9.4 µM
SMILES: O=C(N[C@@H](Cc1ccccc1)C(=O)NCC(=O)N1CCC[C@H]1C(=O)O)c1ccccc1 (Bz-Phe-Gly-Pro-OH)
